Assay results as given in the NIST ThermoML archive (doi:10.1016/j.jct.2012.09.004).

Assays:
[1] = refractive index (Na D-line) (dimensionless); wn = mass fraction of the nth substance listed; conditions: 101 kPa, Liquid, Standard Abbe refractometry
[2] = wn = mass fraction of the nth substance listed; conditions: Pendant drop shape
[3] = refractive index (Na D-line) (dimensionless); conditions: 101.33 kPa, Liquid, Standard Abbe refractometry
[4] = Pendant drop shape

CCCCCCCCCCCCCC[P+](CCCCCC)(CCCCCC)CCCCCC.[Br-] [tetradecyltrihexylphosphonium bromide] + O
Conditions	refractive index	surface tension liquid-gas [mN/m]
[1], 298.15 K, w2 = 0.065	1.4782	–
[1], 303.15 K, w2 = 0.065	1.47646	–
[1], 308.15 K, w2 = 0.065	1.47465	–
[1], 313.15 K, w2 = 0.065	1.47289	–
[1], 318.15 K, w2 = 0.065	1.47115	–
[1], 323.15 K, w2 = 0.065	1.46939	–
[1], 328.15 K, w2 = 0.065	1.46765	–
[1], 333.15 K, w2 = 0.065	1.46587	–
[1], 338.15 K, w2 = 0.065	1.46414	–
[1], 343.15 K, w2 = 0.065	1.46244	–
[1], 348.15 K, w2 = 0.065	1.46078	–
[1], 353.15 K, w2 = 0.065	1.45926	–
[2], 298.1 K, w2 = 0.0665	–	31.4
[2], 307.9 K, w2 = 0.0665	–	30.35
[2], 318.1 K, w2 = 0.0665	–	29.64
[2], 328.1 K, w2 = 0.0665	–	28.95
[2], 338.9 K, w2 = 0.0665	–	28.2
[2], 344.2 K, w2 = 0.0665	–	27.91

CCCCCCCCCCCCCC[P+](CCCCCC)(CCCCCC)CCCCCC.[Cl-] [trihexyl(tetradecyl)phosphonium chloride]
Conditions	refractive index	surface tension liquid-gas [mN/m]
[3], 283.15 K	1.48794	–
[3], 288.15 K	1.48635	–
[3], 293.15 K	1.48471	–
[3], 298.15 K	1.48309	–
[3], 303.15 K	1.48142	–
[3], 308.15 K	1.47973	–
[3], 313.15 K	1.47796	–
[3], 318.15 K	1.4757	–
[3], 323.15 K	1.47387	–
[3], 328.15 K	1.4721	–
[3], 333.15 K	1.47029	–
[3], 338.15 K	1.46854	–
[3], 343.15 K	1.46677	–
[3], 348.15 K	1.46504	–
[3], 353.15 K	1.4634	–
[4], 298.6 K	–	30.6
[4], 308 K	–	30.1
[4], 318 K	–	29.3
[4], 328.1 K	–	28.6
[4], 338.3 K	–	27.8
[4], 343.3 K	–	27.5

CCCCCCCCCCCCCC[P+](CCCCCC)(CCCCCC)CCCCCC.[Cl-] [trihexyl(tetradecyl)phosphonium chloride] + O
w2 = 0.1334
Conditions	refractive index	surface tension liquid-gas [mN/m]
[1], 298.15 K	1.46283	–
[1], 303.15 K	1.46133	–
[1], 308.15 K	1.45953	–
[1], 313.15 K	1.45768	–
[1], 318.15 K	1.45595	–
[1], 323.15 K	1.45425	–
[1], 328.15 K	1.45266	–
[1], 333.15 K	1.45124	–
[1], 338.15 K	1.44998	–
[1], 343.15 K	1.44892	–
[1], 348.15 K	1.44798	–
[1], 353.15 K	1.4471	–
[2], 298.6 K	–	30.81
[2], 308 K	–	30.01
[2], 318.3 K	–	29.2
[2], 328.7 K	–	28.45
[2], 342.7 K	–	27.43

CCCCCCCCCC(=O)[O-].CCCCCCCCCCCCCC[P+](CCCCCC)(CCCCCC)CCCCCC [trihexyltetradecylphosphonium decanoate]
Conditions	refractive index	surface tension liquid-gas [mN/m]
[3], 283.15 K	1.47754	–
[3], 288.15 K	1.47586	–
[3], 293.15 K	1.47413	–
[3], 298.15 K	1.47242	–
[3], 303.15 K	1.47069	–
[3], 308.15 K	1.46896	–
[3], 313.15 K	1.46722	–
[3], 318.15 K	1.46548	–
[3], 323.15 K	1.46341	–
[3], 328.15 K	1.46165	–
[3], 333.15 K	1.46002	–
[3], 338.15 K	1.45828	–
[3], 343.15 K	1.4566	–
[3], 348.15 K	1.45497	–
[3], 353.15 K	1.45327	–
[4], 298 K	–	29
[4], 307.9 K	–	28.5
[4], 318 K	–	27.8
[4], 328.5 K	–	27.2
[4], 338 K	–	26.6
[4], 343 K	–	26.2

CCCCCCCCCC(=O)[O-].CCCCCCCCCCCCCC[P+](CCCCCC)(CCCCCC)CCCCCC [trihexyltetradecylphosphonium decanoate] + O
w2 = 0.1526
Conditions	refractive index	surface tension liquid-gas [mN/m]
[1], 298.15 K	1.45342	–
[1], 303.15 K	1.45194	–
[1], 308.15 K	1.45041	–
[1], 313.15 K	1.44877	–
[1], 318.15 K	1.44699	–
[1], 323.15 K	1.44498	–
[1], 328.15 K	1.4431	–
[1], 333.15 K	1.44129	–
[1], 338.15 K	1.43948	–
[1], 343.15 K	1.43763	–
[1], 348.15 K	1.43579	–
[1], 353.15 K	1.43397	–
[2], 298.4 K	–	29.1
[2], 307.7 K	–	28.5
[2], 318 K	–	27.7
[2], 328.9 K	–	26.8
[2], 339.2 K	–	26
[2], 344.3 K	–	25.6

CCCCCCCCCCCCCC[P+](CCCCCC)(CCCCCC)CCCCCC.CS(=O)(=O)[O-] [trihexyltetradecylphosphonium methanesulfonate]
Conditions	refractive index	surface tension liquid-gas [mN/m]
[3], 283.15 K	1.47813	–
[3], 288.15 K	1.47668	–
[3], 293.15 K	1.47507	–
[3], 298.15 K	1.47346	–
[3], 303.15 K	1.47186	–
[3], 308.15 K	1.47025	–
[3], 313.15 K	1.46865	–
[3], 318.15 K	1.46702	–
[3], 323.15 K	1.4654	–
[3], 328.15 K	1.4638	–
[3], 333.15 K	1.46217	–
[3], 338.15 K	1.46053	–
[3], 343.15 K	1.45895	–
[3], 348.15 K	1.45727	–
[3], 353.15 K	1.45572	–
[4], 298.3 K	–	31
[4], 308 K	–	30.3
[4], 318.5 K	–	29.6
[4], 328.8 K	–	28.8
[4], 338.7 K	–	28.2
[4], 343.5 K	–	27.9

CCCCCCCCCCCCCC[P+](CCCCCC)(CCCCCC)CCCCCC.CS(=O)(=O)[O-] [trihexyltetradecylphosphonium methanesulfonate] + O
w2 = 0.1181
Conditions	refractive index	surface tension liquid-gas [mN/m]
[1], 298.15 K	1.45621	–
[1], 303.15 K	1.4546	–
[1], 308.15 K	1.45281	–
[1], 313.15 K	1.45111	–
[1], 318.15 K	1.44947	–
[1], 323.15 K	1.44795	–
[1], 328.15 K	1.44655	–
[1], 333.15 K	1.44532	–
[1], 338.15 K	1.44427	–
[1], 343.15 K	1.44334	–
[1], 348.15 K	1.44253	–
[1], 353.15 K	1.44181	–
[2], 298.6 K	–	31.15
[2], 307.8 K	–	30.45
[2], 318 K	–	29.81
[2], 323.8 K	–	29.09
[2], 338.2 K	–	28.29
[2], 342.7 K	–	28.05
